The results in this text go back to ChEMBL document CHEMBL1201862, “PubChem BioAssay data set” (2004).

Calls of active or inactive are those of the source.

The target in experiment [1] is Protein-tyrosine kinase 2-beta (Homo sapiens, UniProt Q14289).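 Also: potency of inhibitors of PYK2 kinase phosphorylation of poly-GT substrate.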
Experiment [2] concerns the target T1, Voltage-gated N-type calcium channel alpha-1B subunit/Amyloid beta A4 precursor protein-binding family A member 1 (Homo sapiens, UniProt Q00975+Q02410). It is filed as protein assay.
The target of experiment [3] is T1, Voltage-gated N-type calcium channel alpha-1B subunit/Amyloid beta A4 precursor protein-binding family A member 1. It counts as protein assay. This is another data set of the same source.
The target in experiment [4] is Peroxisome proliferator-activated receptor gamma/Nuclear receptor corepressor 2 (Homo sapiens, UniProt P37231+Q9Y618). It is filed as functional.
Experiment [5] addresses Photoreceptor-specific nuclear receptor (Homo sapiens, UniProt Q9Y5X4). It is filed as functional.
The next experiment deals with Genome polyprotein (Hepatitis C virus, UniProt Q2Q167). The experiment is described as follows: disruption of hepatitis C core self-association – biochemical, TR-FRET, dose response (AID 2159).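 Also: blocks dimerization of HCV core protein measured by TR-FRET between tagged core106 pairs.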 More on the design: species or system Hepacivirus hominis. A general note: Time-resolved FRET reads energy transfer from a long-lived donor to a nearby acceptor.
Experiment [6] can be described thus: Potency on glucagon-like peptide 1 release, dose-response in NCI-H716 cell line, half maximal inhibitory concentration (AID 1117344). It is filed as functional, cell-based.
The next experiment relates to INS1. The experiment is described as follows: INS-1E survival protection against cytokine death – cell-based, luminescence, retest, dose response (AID 449756).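 Also: cell death triggered by IL-1 beta plus TNF-alpha plus IFN-gamma mixture; protective hits raise ATP signal compared with cytokine alone wells.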 It counts as functional. Particulars: Rattus norvegicus.
Experiment [7] can be described thus: SNU-C1 cell viability reduction, dose response, CellTiter-Glo luminescence (AID 1117323). It counts as functional, cell-based. In general terms: ATP-based viability assays read luminescence as a measure of living cells.
The next experiment addresses T2, Streptokinase A (Streptococcus pyogenes serotype M1, UniProt P10520).
T2 sequence (P10520 whole entry): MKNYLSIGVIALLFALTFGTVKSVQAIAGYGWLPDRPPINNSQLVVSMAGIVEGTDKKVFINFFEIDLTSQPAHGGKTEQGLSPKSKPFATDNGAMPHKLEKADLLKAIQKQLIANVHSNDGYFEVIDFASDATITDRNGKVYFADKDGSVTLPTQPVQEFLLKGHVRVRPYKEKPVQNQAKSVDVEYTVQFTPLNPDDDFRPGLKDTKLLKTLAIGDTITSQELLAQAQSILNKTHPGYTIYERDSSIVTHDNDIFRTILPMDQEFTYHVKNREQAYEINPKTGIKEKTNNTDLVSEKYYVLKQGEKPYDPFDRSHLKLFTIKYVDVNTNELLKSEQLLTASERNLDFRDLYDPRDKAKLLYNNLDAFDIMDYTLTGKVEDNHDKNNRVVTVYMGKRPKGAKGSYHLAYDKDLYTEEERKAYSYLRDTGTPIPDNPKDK
The experiment in a line: viability-normalized secreted streptokinase activity reduction – plasminogen activation absorbance, OD405, dose response (AID 1914).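 Also: secreted streptokinase activity via plasminogen activation per viability signal from cell pellet.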 It is filed as functional, Streptococcus pyogenes M1 GAS.

The nature of experiment [8]: glucagon-like peptide-1 release potency in STC-1, concentration-response, half-maximal inhibitory concentration in the STC-1 line (AID 1117345). It counts as functional, cell-based.
The target in experiment [9] is Heat shock protein HSP 90-alpha (Homo sapiens, UniProt P07900). It counts as functional, organism-based.
Experiment [10] in a line: cytotoxicity toward HCT116 cells – cell-based, CellTiter-Glo luminescence, IC50, dose response (AID 1117332). It counts as functional. Particulars: HCT-116.
In the next experiment the test system is Vero. The experiment in a line: viability of Vero cells under compound – cytotoxicity control for flavivirus capping enzyme inhibitors (AID 588742). It is filed as functional. The following applies: Chlorocebus sabaeus.
The target in a further experiment is Oxytocin receptor (Homo sapiens, UniProt P30559). The experiment in a line: Fluorescence-based cell-based high throughput dose response assay for agonists of the Oxytocin Receptor (OXTR). [Related pubchem assays: 2435 (Primary screen (OXTR agonists in singlicate)), 434991 (Counterscreen (V1R agonists in triplicate)), 2482 (Summary (OXTR agonists)), 434963 (Confirmation screen (OXTR agonists in triplicate))]. It counts as functional. (In general: The purpose of a counterscreen is to sort out artefacts and off-target activity.)

A short description of experiment [11]: cytotoxicity toward Colo320 cells – cell-based, CellTiter-Glo luminescence, IC50, dose response (AID 1117334). It counts as functional. Particulars: COLO 320.
Experiment [12] can be described thus: HCT116 cell viability decrease, GSK3B pretreatment – CellTiter-Glo, IC50, dose response (AID 1117339). It is filed as functional. Particulars: HCT-116.
Experiment [13] concerns the target T3, DNA repair protein RAD52 homolog (Homo sapiens, UniProt P43351).
T3 sequence (P43351 whole entry): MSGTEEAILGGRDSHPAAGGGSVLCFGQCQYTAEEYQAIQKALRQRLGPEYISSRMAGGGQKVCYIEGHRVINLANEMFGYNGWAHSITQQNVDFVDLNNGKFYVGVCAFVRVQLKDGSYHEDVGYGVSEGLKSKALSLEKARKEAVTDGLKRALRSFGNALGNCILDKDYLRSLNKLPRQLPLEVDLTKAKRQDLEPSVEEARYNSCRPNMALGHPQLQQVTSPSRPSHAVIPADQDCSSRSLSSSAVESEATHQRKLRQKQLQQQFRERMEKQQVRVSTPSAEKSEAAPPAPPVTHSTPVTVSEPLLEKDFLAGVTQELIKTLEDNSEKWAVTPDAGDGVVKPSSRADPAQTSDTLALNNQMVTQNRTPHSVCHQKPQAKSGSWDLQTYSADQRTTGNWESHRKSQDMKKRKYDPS
It is filed as functional, biochemical.

Experiment [14] in a line: microbe, parasite or virus in culture. It counts as functional. The following applies: Mycobacterium tuberculosis.
The target of the next experiment is Vasopressin V1a receptor (Homo sapiens, UniProt P37288). The experiment is described as follows: Counterscreen for Oxytocin Receptor (OXTR) agonists: Fluorescence-based cell-based high throughput dose response assay to identify agonists of the vasopressin 1 receptor (V1R). [Related pubchem assays: 2435 (Primary screen (OXTR agonists in singlicate)), 434991 (Counterscreen (V1R agonists in triplicate)), 2482 (Summary (OXTR agonists)) …. It is filed as functional.

Experiment [15] in a line: RKO cell viability reduction, dose response, CellTiter-Glo luminescence (AID 1117322). It is filed as functional.
The nature of experiment [16]: Reduced DLD-1 viability, concentration-response, CellTiter-Glo luminescence (AID 1117352). It counts as functional.
Experiment [17] relates to Streptococcus sp. 'group A'. The experiment in a line: Streptococcus pyogenes SK(-)GAS viability under kanamycin – luminescence, BacTiterGlo, confirmation, counter-screen for streptokinase expression inhibitor project, dose response (AID 1900). It counts as functional, organism-based.
Experiment [18] can be described thus: CellTiter-Glo luminescence survival assay, SW480 colon tumor line, concentration-response curve, half-maximal inhibitory concentration (AID 1117338). It is filed as functional.
The next experiment has as its target T4, Protein RecA (Mycobacterium tuberculosis, UniProt P9WHJ3).
T4 sequence (P9WHJ3 whole entry): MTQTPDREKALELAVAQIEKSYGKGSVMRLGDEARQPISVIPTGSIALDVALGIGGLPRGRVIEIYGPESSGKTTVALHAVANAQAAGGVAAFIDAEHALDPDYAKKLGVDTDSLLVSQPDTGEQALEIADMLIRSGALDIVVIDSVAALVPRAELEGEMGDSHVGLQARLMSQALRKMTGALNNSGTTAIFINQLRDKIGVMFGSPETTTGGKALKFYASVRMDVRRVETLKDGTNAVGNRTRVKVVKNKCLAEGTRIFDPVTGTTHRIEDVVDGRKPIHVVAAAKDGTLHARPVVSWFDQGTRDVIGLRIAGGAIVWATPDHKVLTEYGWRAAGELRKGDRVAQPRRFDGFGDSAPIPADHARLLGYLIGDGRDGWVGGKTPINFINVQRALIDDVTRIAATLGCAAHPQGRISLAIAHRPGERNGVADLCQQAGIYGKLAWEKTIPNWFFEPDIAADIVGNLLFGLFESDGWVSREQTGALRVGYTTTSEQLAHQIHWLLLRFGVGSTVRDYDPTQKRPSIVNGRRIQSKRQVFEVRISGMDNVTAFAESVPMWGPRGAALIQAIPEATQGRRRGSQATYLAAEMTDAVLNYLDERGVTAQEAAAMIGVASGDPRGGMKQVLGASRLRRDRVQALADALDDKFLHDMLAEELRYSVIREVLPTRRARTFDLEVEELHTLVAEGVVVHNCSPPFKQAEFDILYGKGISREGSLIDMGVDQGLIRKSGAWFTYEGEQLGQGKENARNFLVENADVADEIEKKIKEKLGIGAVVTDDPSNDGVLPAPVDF
The experiment is described as follows: Fluorescence Cell-Free Homogeneous Dose Retest to Identify Inhibitors of RecA-Intein Splicing Activity. [Related pubchem assays (depositor defined):AID2097, AID2223, AID489010, AID492950]. It counts as functional.

The subject of a further experiment is Streptococcus. The experiment is described as follows: GAS UMAA2166 growth inhibition – luminescence, BacTiterGlo, counter-screen for streptokinase expression inhibitor project, dose response (AID 1915).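 Also: potency for reduction of bacterial viability or growth.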 It is filed as functional, organism-based.
Experiment [19] has as its target T5, Replicative DNA helicase DnaB (Mycobacterium tuberculosis, UniProt P9WMR3).
T5 sequence (P9WMR3 whole entry): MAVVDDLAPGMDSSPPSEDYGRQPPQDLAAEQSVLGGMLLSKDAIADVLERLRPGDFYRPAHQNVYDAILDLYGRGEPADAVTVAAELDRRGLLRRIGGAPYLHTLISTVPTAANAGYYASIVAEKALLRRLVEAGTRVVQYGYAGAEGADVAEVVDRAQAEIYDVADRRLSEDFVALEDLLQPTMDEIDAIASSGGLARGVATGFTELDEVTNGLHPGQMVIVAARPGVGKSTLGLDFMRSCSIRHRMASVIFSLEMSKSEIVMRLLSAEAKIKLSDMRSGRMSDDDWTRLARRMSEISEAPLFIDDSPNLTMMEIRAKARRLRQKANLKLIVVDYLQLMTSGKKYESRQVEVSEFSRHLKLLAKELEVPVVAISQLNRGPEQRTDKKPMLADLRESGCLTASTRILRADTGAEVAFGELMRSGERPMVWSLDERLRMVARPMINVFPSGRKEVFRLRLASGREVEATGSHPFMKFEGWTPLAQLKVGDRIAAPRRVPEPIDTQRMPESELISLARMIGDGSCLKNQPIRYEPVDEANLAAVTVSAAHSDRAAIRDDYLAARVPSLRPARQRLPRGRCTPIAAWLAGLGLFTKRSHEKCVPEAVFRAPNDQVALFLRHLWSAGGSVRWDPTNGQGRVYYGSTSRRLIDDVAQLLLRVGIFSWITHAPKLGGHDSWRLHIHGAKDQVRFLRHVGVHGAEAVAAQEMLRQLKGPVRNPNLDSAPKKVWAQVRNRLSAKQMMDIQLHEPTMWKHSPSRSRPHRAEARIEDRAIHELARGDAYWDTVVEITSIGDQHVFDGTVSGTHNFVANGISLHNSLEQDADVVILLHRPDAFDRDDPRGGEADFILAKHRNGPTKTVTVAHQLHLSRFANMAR
The experiment is described as follows: DnaB intein splicing inhibitors, dose response, biochemical, cell-free fluorescence (AID 449749). It counts as functional.

Experiment [20] in a line: cytotoxicity toward HT-29 cells – cell-based, CellTiter-Glo luminescence, IC50, dose response (AID 1117330). It is filed as functional.

T1 sequence (Q00975 whole entry): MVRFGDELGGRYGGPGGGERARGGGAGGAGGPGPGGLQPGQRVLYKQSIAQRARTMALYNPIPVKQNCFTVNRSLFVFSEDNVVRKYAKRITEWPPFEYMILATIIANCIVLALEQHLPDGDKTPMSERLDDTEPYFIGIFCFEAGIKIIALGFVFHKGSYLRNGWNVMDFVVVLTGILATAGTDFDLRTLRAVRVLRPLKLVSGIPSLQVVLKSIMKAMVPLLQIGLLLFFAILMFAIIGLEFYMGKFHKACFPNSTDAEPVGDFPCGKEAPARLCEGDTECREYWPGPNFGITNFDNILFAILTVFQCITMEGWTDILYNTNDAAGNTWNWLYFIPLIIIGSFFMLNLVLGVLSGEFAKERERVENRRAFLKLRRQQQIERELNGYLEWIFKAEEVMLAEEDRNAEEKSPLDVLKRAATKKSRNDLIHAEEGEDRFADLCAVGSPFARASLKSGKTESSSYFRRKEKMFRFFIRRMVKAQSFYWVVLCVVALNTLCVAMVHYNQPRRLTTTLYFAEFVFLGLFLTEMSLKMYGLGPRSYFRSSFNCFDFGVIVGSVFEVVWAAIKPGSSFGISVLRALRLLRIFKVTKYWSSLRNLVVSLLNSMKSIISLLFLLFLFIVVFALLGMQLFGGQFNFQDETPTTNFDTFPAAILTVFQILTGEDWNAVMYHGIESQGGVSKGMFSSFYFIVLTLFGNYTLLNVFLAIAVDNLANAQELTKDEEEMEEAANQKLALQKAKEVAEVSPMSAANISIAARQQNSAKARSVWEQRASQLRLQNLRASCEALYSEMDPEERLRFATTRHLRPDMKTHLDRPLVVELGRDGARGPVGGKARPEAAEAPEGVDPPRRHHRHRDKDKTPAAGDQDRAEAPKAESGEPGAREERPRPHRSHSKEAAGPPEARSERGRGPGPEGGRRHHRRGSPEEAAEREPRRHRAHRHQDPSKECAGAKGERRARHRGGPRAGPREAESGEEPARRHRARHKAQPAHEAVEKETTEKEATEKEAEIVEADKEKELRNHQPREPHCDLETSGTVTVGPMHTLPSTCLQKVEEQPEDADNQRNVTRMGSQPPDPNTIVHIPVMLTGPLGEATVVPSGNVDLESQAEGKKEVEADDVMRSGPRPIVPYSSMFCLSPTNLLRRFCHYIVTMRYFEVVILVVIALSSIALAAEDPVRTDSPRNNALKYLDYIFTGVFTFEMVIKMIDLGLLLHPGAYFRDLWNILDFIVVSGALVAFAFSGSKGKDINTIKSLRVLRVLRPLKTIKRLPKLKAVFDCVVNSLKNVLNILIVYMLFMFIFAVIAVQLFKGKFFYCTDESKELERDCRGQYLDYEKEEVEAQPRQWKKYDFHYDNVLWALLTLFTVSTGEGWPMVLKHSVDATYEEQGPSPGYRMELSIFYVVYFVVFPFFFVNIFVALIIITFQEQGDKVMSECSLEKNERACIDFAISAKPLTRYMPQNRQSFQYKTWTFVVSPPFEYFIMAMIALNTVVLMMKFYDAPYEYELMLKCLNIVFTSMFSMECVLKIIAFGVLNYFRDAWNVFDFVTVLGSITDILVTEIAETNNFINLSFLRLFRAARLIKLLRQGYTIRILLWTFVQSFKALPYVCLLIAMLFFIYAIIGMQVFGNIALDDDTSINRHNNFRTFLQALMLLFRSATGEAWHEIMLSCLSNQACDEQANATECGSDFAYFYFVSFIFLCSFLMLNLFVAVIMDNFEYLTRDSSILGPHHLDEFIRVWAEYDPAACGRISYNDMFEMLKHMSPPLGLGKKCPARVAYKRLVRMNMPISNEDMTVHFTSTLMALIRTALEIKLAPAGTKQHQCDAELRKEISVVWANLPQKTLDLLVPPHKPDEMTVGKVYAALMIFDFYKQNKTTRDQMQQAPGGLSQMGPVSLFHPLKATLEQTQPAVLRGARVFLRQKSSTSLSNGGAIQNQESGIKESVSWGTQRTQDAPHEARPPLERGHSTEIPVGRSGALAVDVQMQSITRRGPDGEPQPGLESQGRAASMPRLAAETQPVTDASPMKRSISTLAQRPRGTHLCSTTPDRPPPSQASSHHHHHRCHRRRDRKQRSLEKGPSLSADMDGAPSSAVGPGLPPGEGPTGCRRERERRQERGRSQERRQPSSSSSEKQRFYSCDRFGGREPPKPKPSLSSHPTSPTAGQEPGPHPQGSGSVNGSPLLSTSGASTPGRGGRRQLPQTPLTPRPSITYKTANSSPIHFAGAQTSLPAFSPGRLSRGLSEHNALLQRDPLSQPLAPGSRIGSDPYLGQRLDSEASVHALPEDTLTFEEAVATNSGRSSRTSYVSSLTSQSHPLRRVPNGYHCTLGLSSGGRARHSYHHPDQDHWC
T1 sequence (Q02410 whole entry): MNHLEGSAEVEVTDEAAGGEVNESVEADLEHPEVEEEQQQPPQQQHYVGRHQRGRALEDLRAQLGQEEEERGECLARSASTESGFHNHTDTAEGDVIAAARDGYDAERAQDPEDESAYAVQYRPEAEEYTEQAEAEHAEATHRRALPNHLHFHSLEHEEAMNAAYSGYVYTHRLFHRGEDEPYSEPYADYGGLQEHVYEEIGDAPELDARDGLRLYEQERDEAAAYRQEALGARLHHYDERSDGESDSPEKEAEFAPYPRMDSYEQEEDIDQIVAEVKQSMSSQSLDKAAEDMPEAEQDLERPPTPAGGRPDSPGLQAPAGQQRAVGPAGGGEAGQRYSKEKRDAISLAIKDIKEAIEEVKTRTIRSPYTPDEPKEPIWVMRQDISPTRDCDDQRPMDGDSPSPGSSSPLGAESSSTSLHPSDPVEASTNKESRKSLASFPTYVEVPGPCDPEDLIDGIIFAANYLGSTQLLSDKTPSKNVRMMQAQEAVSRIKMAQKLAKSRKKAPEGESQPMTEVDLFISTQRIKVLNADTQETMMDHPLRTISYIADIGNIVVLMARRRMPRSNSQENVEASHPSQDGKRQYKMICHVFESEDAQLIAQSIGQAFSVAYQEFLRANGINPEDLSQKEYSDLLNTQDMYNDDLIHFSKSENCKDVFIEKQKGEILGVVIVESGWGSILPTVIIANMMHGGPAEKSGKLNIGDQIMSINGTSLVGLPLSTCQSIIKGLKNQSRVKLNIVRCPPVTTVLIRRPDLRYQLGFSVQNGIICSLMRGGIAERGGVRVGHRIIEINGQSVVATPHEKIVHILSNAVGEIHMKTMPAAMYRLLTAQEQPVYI
Sequence of Vasopressin V1a receptor (P37288 whole entry): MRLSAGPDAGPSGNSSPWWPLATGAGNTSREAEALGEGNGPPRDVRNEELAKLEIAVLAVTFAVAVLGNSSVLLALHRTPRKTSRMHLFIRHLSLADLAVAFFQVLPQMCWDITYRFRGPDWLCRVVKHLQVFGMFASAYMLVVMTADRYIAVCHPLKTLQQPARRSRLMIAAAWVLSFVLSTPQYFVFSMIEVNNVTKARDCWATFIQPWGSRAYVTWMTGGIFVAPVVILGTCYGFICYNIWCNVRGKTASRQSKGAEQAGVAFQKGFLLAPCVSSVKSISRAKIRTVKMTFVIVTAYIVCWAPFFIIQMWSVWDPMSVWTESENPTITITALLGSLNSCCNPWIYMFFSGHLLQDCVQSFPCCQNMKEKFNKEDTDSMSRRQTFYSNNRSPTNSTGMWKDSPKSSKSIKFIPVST
Sequence of Protein-tyrosine kinase 2-beta (Q14289 whole entry): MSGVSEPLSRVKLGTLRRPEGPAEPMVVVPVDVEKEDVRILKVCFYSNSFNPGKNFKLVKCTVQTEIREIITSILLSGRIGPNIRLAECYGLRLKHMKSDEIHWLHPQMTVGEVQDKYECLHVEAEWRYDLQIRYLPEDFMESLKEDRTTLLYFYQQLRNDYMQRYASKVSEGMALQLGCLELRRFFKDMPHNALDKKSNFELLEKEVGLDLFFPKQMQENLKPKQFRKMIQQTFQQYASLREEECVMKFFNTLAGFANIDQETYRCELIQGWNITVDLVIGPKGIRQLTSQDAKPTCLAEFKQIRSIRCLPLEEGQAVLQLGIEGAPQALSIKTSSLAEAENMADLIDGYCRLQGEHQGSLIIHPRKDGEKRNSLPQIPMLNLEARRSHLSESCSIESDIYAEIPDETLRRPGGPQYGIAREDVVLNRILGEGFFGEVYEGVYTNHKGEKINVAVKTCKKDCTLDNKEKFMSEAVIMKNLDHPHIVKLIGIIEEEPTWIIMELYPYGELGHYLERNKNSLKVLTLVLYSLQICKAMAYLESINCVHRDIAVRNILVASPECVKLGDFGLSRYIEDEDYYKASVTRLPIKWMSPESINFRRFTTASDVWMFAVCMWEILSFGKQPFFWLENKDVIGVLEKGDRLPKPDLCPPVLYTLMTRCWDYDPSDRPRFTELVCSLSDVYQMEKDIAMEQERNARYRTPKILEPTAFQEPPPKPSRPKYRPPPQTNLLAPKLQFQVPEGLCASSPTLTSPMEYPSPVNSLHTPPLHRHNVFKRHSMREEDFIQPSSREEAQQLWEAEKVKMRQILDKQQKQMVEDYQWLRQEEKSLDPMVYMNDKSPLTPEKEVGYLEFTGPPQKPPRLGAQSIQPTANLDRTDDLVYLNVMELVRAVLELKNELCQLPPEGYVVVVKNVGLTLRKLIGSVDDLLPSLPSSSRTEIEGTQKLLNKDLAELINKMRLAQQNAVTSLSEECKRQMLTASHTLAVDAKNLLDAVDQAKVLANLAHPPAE
Sequence of Genome polyprotein (Q2Q167 whole entry): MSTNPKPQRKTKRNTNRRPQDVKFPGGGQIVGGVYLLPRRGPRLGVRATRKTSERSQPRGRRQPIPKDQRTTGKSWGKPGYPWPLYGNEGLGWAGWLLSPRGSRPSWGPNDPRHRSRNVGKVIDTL

In the case of `Cc1c(N2C(=O)c3ccc4c5c(ccc(c35)C2=O)CC4)c(=O)n(-c2ccccc2)n1C`, the IC50 (usually the concentration that inhibits the measured activity by half) in [1] was 2.27 µM (active); in experiment [2] it was 15.7 µM (active); in experiment [3], 5.83 µM (active); in experiment [4], > 39.8 µM (not active); in [5] it was > 39.8 µM (not active); on Genome polyprotein, > 49.8 µM (not active).
In the case of `CCCCCCCCCCCCCCCC[N+](C)(C)CC`, the IC50 in experiment [6] was 11.7 µM (inactive); in [7], 0.004 µM (active); in experiment [8], > 40 µM (inactive); in experiment [10], 3.16 µM (active); in [11] it was 0.0372 µM (active); in [12], 2.68 µM (active). Moreover, the IC50 in [15] is 0.931 µM (active); in experiment [16], 0.74 µM (active); in experiment [18], 1.24 µM (active); in experiment [20] it was 0.409 µM (active). In addition, the AC50 (usually the midpoint of the concentration-response curve, whichever way the signal moves) in the experiment with INS1 was 2.97 µM (active); in [9] it was 1.16 µM (active); in experiment [13], 8.98 µM (active); in experiment [19] it was 4.56 µM (active). In addition, the EC50 – broadly, the concentration needed to bring the measured effect to its halfway point – is 23.2 µM (inconclusive) on Streptokinase A; > 29.9 µM (not active) on Oxytocin receptor; > 3.32 µM (active) on Vasopressin V1a receptor; 1.3 µM (active) in experiment [17]; 13.2 µM (active) on Protein RecA; 8.57 µM (active) with Streptococcus. Also, the CC50 is 32.7 µM (active) in the experiment with Vero and 34.8 µM (active) in experiment [14].
